How the values were obtained:
Rattus norvegicus [1] = assay: Dose required for producing 50% block of avoidance responding in rats after peroral administration; assay type: functional
Rattus norvegicus [2] = assay: Dose required for producing 20% block of escape responding in rats after peroral administration; assay type: functional

| Compound | ABD50 (Rattus norvegicus [1]) | EBD20 (Rattus norvegicus [2]) |
| --- | --- | --- |
| CCc1c(C)[nH]c2c1C(=O)[C@@H]1CN(C)CC[C@H]1C2.Cl | >6 mg/kg | – |
| CCc1c(C)[nH]c2c1C(=O)[C@H]1CN(C)CC[C@@H]1C2.Cl | 0.49 mg/kg | 3.6 mg/kg |
| CCc1c(C)[nH]c2c1C(=O)C1CN(C)CCC1C2.Cl (racemic) | 0.72 mg/kg | 9.8 mg/kg |
| O=C(CCCN1CCC(O)(c2ccc(Cl)cc2)CC1)c1ccc(F)cc1 [HALOPERIDOL] | 0.35 mg/kg | 2.7 mg/kg |
| CCc1c(C)[nH]c2c1C(=O)C(CN1CCOCC1)CC2 (centres undefined) [MOLINDONE] | 3.6 mg/kg | 17.1 mg/kg |

From ChEMBL document CHEMBL1121689, “A dopamine receptor model and its application in the design of a new class of rigid pyrrolo[2,3-g]isoquinoline antipsychotics” (1981)
